Reference: patent publication US20110039762A1, “TARGETED ANTIMICROBIAL MOIETIES” (C3 JIAN, INC., priority 2009, published 2011)
Entries after “also recorded” stand apart in the source; their conditions may differ.

Tested on: microorganisms (e.g., bacteria, yeasts, fungi)
Assay: Targeting peptide binding to target microorganisms (Table 3)
Settings: microorganism the targeting peptide binds; binding in aqueous buffers varied by peptide solubility, preferably 1x PBS

Substance | Target(s)
1T-78 (FFKTIFVLILGALGVAAGLYIEKNYIDK; Peptide with targeting and/or antimicrobial activity) [Peptide 1T-78] | S. pneumoniae
1T-79 (FGTPWSITNFWKKNFNDRPDFDSDRRRY; Peptide with targeting and/or antimicrobial activity) [Peptide 1T-79] | S. pneumoniae
1T-80 (GGNLGPGFGVIIP; Peptide with targeting and/or antimicrobial activity) [Peptide 1T-80] | S. pneumoniae
1T-81 (AIATGLDIVDGKFDGYLWA; Peptide with targeting and/or antimicrobial activity) [Peptide 1T-81] | S. pneumoniae
1T-82 (FGVGVGIALFMAGYAIGKDLRKKFGKSC; Peptide with targeting and/or antimicrobial activity) [Peptide 1T-82] | S. pneumoniae
1T-83 (QKPRKNETFIGYIQRYDIDGNGYQSLPCPQN; Peptide with targeting and/or antimicrobial activity) [Peptide 1T-83] | S. pneumoniae
1T-84 (FRKKRYGLSILLWLNAFTNLVNSIHAFYMTLF; Peptide with targeting and/or antimicrobial activity) [Peptide 1T-84] | S. pneumoniae
1T-86 (HRKNPVLGVGRRHRAHNVA; Peptide with targeting and/or antimicrobial activity) [Peptide 1T-86] | S. mitis; also recorded: S. oralis; also recorded: S. salivarious
1T-87 (EAVGQDLVDAHHP; Peptide with targeting and/or antimicrobial activity) [Peptide 1T-87] | S. mitis; also recorded: S. mutans; also recorded: S. oralis
1T-89 (HEDDKRRGMSVEVLGFEVVQHEE; Peptide with targeting and/or antimicrobial activity) [Peptide 1T-89] | S. mitis; also recorded: S. mutans
1T-90 (RNVIGQVL; Peptide with targeting and/or antimicrobial activity) [Peptide 1T-90] | S. gordonii; also recorded: S. mitis; also recorded: S. mutans; also recorded: S. oralis; also recorded: S. sanguinis
1T-91 (TSVRPGAAGAAVPAGAAGAAGAGWRWP; Peptide with targeting and/or antimicrobial activity) [Peptide 1T-91] | S. mitis; also recorded: S. mutans; also recorded: S. oralis; also recorded: S. sanguinis
1T-92 (GQDEGQRRAGVGEGQGVDG; Peptide with targeting and/or antimicrobial activity) [Peptide 1T-92] | S. mitis; also recorded: S. mutans
1T-93 (AMRSVNQA; Peptide with targeting and/or antimicrobial activity) [Peptide 1T-93] | S. epidermidis; also recorded: S. gordonii; also recorded: S. mitis; also recorded: S. mutans; also recorded: S. oralis; also recorded: S. sanguinis
1T-94 (DQVAHSGDMLVQARRRDS; Peptide with targeting and/or antimicrobial activity) [Peptide 1T-94] | S. mitis; also recorded: S. mutans; also recorded: S. oralis
1T-95 (GHLLRVGGRVGGVGGVAGACAQPFGGQ; Peptide with targeting and/or antimicrobial activity) [Peptide 1T-95] | S. gordonii; also recorded: S. mitis; also recorded: S. mutans; also recorded: S. oralis; also recorded: S. sanguinis
1T-96 (VAGACAQPFGGQ; Peptide with targeting and/or antimicrobial activity) [Peptide 1T-96] | S. gordonii; also recorded: S. mitis; also recorded: S. mutans; also recorded: S. oralis; also recorded: S. sanguinis
1T-99 (MKAWLGQ; Peptide with targeting and/or antimicrobial activity) [Peptide 1T-99] | S. gordonii; also recorded: S. mitis; also recorded: S. mutans; also recorded: S. oralis; also recorded: S. sanguinis
1T-100 (LDPLEPRIAPPGDRSHQGAPACHRDPLRGRSARDAER; Peptide with targeting and/or antimicrobial activity) [Peptide 1T-100] | S. gordonii; also recorded: S. mitis; also recorded: S. mutans
1T-101 (RLRVGRATDLPLTSFAVGVVRNLPDAPAH; Peptide with targeting and/or antimicrobial activity) [Peptide 1T-101] | A. naeslundii; also recorded: P. gingivalis; also recorded: S. epidermidis; also recorded: S. gordonii; also recorded: S. mitis; also recorded: S. mutans; also recorded: S. oralis; also recorded: S. sanguinis
1T-104 (RAVAAHLQGRHHGHQVRRQRHGQR; Peptide with targeting and/or antimicrobial activity) [Peptide 1T-104] | S. mitis

Substance | Target(s)
1T-105 (GEGLPPPVLHLPPPRMSGR; Peptide with targeting and/or antimicrobial activity) [Peptide 1T-105] | S. epidermidis; also recorded: S. gordonii; also recorded: S. mitis; also recorded: S. mutans; also recorded: S. oralis
1T-106 (DALRRSRSQGRRHR; Peptide with targeting and/or antimicrobial activity) [Peptide 1T-106] | S. gordonii; also recorded: S. mitis; also recorded: S. mutans; also recorded: S. oralis; also recorded: S. salivarious
1T-107 (SPVPRFTAVGGVSRGSP; Peptide with targeting and/or antimicrobial activity) [Peptide 1T-107] | A. naeslundii; also recorded: S. epidermidis; also recorded: S. gordonii; also recorded: S. mitis; also recorded: S. mutans; also recorded: S. oralis; also recorded: S. salivarious; also recorded: S. sanguinis
1T-108 (WGPLGPERPLW; Peptide with targeting and/or antimicrobial activity) [Peptide 1T-108] | S. gordonii; also recorded: S. mitis; also recorded: S. mutans; also recorded: S. oralis; also recorded: S. salivarious; also recorded: S. sanguinis
1T-109 (VTTNVRQGAGS; Peptide with targeting and/or antimicrobial activity) [Peptide 1T-109] | A. naeslundii; also recorded: S. epidermidis; also recorded: S. gordonii; also recorded: S. mitis; also recorded: S. mutans; also recorded: S. oralis; also recorded: S. salivarious; also recorded: S. sanguinis
1T-110 (LAAKTAVCVGRAFM; Peptide with targeting and/or antimicrobial activity) [Peptide 1T-110] | A. naeslundii; also recorded: P. gingivalis; also recorded: S. epidermidis; also recorded: S. gordonii; also recorded: S. mitis; also recorded: S. mutans; also recorded: S. oralis; also recorded: S. sanguinis
1T-112 (SDNDGKLILGTSQ; Peptide with targeting and/or antimicrobial activity) [Peptide 1T-112] | S. gordonii
1T-113 (HGAHQRTGQRLHHHRGRTVSGCRQNPVAGVDPDEHR; Peptide with targeting and/or antimicrobial activity) [Peptide 1T-113] | S. mitis
1T-114 (RQAPGPGLVTITAACSAPGSRSR; Peptide with targeting and/or antimicrobial activity) [Peptide 1T-114] | A. naeslundii; also recorded: P. gingivalis; also recorded: S. epidermidis; also recorded: S. gordonii; also recorded: S. mitis; also recorded: S. mutans; also recorded: S. oralis; also recorded: S. sanguinis
1T-117 (GPGVVGPAPFSRLPAHALNL; Peptide with targeting and/or antimicrobial activity) [Peptide 1T-117] | S. mutans
1T-119 (SPATQKAPTRAQPSRAPVQDCGDGRPTAAPDDVERLSPR; Peptide with targeting and/or antimicrobial activity) [Peptide 1T-119] | S. gordonii; also recorded: S. mitis; also recorded: S. mutans; also recorded: S. oralis
1T-121 (FAKETGFGIGGAQEGWWIIADIYGPNPF; Peptide with targeting and/or antimicrobial activity) [Peptide 1T-121] | S. gordonii; also recorded: S. mitis; also recorded: S. mutans; also recorded: S. oralis; also recorded: S. salivarious; also recorded: S. sanguinis
1T-122 (GAIPDPVTHRVDWEEDHQTRPSR; Peptide with targeting and/or antimicrobial activity) [Peptide 1T-122] | S. mitis
1T-123 (LVRRNAVAGRSDGLAGAEQLDLVRLQGVL; Peptide with targeting and/or antimicrobial activity) [Peptide 1T-123] | S. gordonii
1T-124 (LFDERNKIA; Peptide with targeting and/or antimicrobial activity) [Peptide 1T-124] | S. mitis; also recorded: S. mutans; also recorded: S. oralis
1T-125 (DAITGGNPPLSDTDGLRP; Peptide with targeting and/or antimicrobial activity) [Peptide 1T-125] | S. epidermidis; also recorded: S. gordonii; also recorded: S. mutans; also recorded: S. oralis
1T-126 (QGLARPVLRRIPL; Peptide with targeting and/or antimicrobial activity) [Peptide 1T-126] | S. gordonii; also recorded: S. mitis; also recorded: S. mutans
1T-139 (AVAGAAVGALLGNDARSTAVGAAIGGALGAGAGELTKNK; Peptide with targeting and/or antimicrobial activity) [Peptide 1T-139] | A. naeslundii; also recorded: S. gordonii; also recorded: S. mitis; also recorded: S. mutans; also recorded: S. oralis
1T-141 (KKFIILLFILVQGLIFSATKTLSDIIAL; Peptide with targeting and/or antimicrobial activity) [Peptide 1T-141] | F. nucleatum; also recorded: P. gingivalis; also recorded: S. epidermidis; also recorded: S. gordonii; also recorded: S. mitis; also recorded: S. mutans; also recorded: S. oralis; also recorded: S. sanguinis
1T-145 (VEAGKRNISLENIEKISKGLGISISELFKYIEEGEDKIG; Peptide with targeting and/or antimicrobial activity) [Peptide 1T-145] | S. mitis; also recorded: S. mutans; also recorded: S. oralis
